# Assay results reported in patent US8709804B2, “Method for drug screening and characterization by calcium flux” (Cedars-Sinai Medical Center, priority 2004, dated 2014).
# Legend:
# AtT-20 cells [1] = experiment: Dose response of spontaneous calcium oscillations by confocal Calcium Green imaging of single cells; format: cell-based, mouse
# Method: Sigmoidal dose response curves were fit to each individual cell and the average response over the total population was calculated.
# The treated cell samples were imaged using asymmetric imaging methods and a temporal resolution of 3 fps for up to 45 minutes total recording time. In particular, illumination (excitation) was diffraction limited while the detection (emission) was almost wide-field by opening the confocal detection pinhole but leaving the excitation pinhole closed. This allowed for increased detection efficiency, while still suppressing background fluorescence. […]
# The Attofluor cell culture chamber was placed inside a PenCon temperature controlled incubator at 37° C. mounted on a DMIRB/E inverted microscope (obtained from Leica Microsystems; Wetzlar, Germany). […] The digital temperature readout of the incubator was checked with a calibrated mercury thermometer to confirm the values within 0.2° C. […]
# AtT-20 cells [2] = experiment: Cell viability control after 45 minutes of imaging and nimodipine: calcium response to high K+ depolarization; format: cell-based, mouse; details: 45 minutes of imaging and nimodipine treatment up to maximum dose, FIG. 4B
# Method: Cells were stained with Calcium Green, imaged and exposed to increasing drug doses for 45 minutes. […] First, untreated AtT-20 cells were imaged over a forty-five (45) minute time span with continuous recording at 3 fps. The amplitude of calcium oscillations was measured and plotted over time. […] The averaged oscillation amplitudes of an untreated cell sample over a fifty (50) minute interval for all cells is shown in FIG. 3B. […] As such, experiments were not recorded longer than 45 minutes.
smiles,measurement,setting,value
"COCCOC(=O)C1=C(C)NC(C)=C(C(=O)OC(C)C)C1c1cccc([N+](=O)[O-])c1 (stereo not drawn) [nimodipine, 1,4-Dihydro-2,6-dimethyl-4-(3-nitrophenyl)-3,5-pyridinedicarboxylic acid 2-methyloxyethyl 1-methylethyl ester]",IC50,"AtT-20 cells [1]; Mus musculus, AtT20, 5 min, average over all individual cells, FIG. 5B, 5 minute interval per dose, read-out: IC50 of the averaged dose response of calcium oscillation amplitude",23 nM
same,Concentration giving complete inhibition of baseline spontaneous calcium oscillations (BSCOs),"AtT-20 cells [1]; representative cell, FIG. 4C, concentration increased in 10-fold increments",100 nM
same,Toxicity of prolonged exposure to cells,AtT-20 cells [2],non-toxic
